Reference: patent US20100256105A1, “NOVEL COMPOUNDS” (AstraZeneca R&D, priority 2009, published 2010)

Molecular target: T1, recombinant human GR (Homo sapiens, UniProt P04150)
T1 construct: purchased Panvera/Invitrogen P2812 (kit P2893)
T1 sequence (P04150 1-777): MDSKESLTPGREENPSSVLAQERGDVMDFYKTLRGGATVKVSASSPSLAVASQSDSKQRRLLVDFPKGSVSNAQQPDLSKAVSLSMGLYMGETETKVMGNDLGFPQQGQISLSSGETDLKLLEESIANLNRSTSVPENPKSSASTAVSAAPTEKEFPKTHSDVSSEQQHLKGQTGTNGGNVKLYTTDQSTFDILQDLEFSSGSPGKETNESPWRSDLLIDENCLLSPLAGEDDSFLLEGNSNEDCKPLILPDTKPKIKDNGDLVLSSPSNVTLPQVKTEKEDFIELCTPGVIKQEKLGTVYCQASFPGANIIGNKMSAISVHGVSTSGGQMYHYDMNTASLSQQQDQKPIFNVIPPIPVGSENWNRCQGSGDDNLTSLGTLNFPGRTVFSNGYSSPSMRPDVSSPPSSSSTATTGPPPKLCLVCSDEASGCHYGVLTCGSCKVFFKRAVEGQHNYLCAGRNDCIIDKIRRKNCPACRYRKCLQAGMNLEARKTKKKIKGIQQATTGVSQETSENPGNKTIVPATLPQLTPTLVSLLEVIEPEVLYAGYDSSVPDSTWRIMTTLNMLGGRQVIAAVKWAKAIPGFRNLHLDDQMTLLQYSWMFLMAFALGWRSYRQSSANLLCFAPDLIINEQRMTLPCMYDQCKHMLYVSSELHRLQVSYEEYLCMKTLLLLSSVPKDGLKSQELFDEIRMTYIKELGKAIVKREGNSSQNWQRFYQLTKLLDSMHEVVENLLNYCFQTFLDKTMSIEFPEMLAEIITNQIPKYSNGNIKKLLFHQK
Assay: Human Glucocorticoid Receptor (GR) Assay, fluorescence polarization
Settings: GS Red tracer, 2 hours at room temperature, 100% control 10 μM Dexamethasone, read-out: Inhibition of GR binding, IC50
Description: Human Glucocorticoid Receptor (GR) Assay The assay is based on a commercial kit from Panvera/Invitrogen (Part number P2893). The assay technology is fluorescence polarization. The kit utilises recombinant human GR (Panvera, Part number P2812), a Fluoromone™ labelled tracer (GS Red, Panvera, Part number P2894) and a Stabilizing Peptide 10× (Panvera, Part number P2815). The GR and Stabilizing Peptide reagents are stored at −70° C. while the GS Red is stored at −20° C. Also included in the kit are 1M DTT (Panvera, Part number P2325, stored at −20° C.) and GR Screening buffer 10× (Panvera, Part number P2814, stored at −70° C. initially but once thawed stored at room temperature). Avoid repeated freeze/thaws for all reagents. The GR Screening buffer 10× comprises 100 mM potassium phosphate, 200 mM sodium molybdate, 1 mM EDTA and 20% DMSO. Test compounds (1 μL) and controls (1 μL) in 100% DMSO were added to black polystyrene 384-well plates (Greiner low volume black flat-bottom, part number 784076). 0% control was 100% DMSO and 100% control was 10 μM Dexamethasone. Background solution (8 μL; assay buffer 10×, Stabilizing Peptide, DTT and ice cold MQ water) was added to the background wells. GS Red solution (7 μL; assay buffer 10×, Stabilizing Peptide, DTT, GS Red and ice cold water) was added to all wells except background wells. GR solution (7 μL; assay buffer 10×, Stabilizing Peptide, DTT, GR and ice cold water) was added to all wells. The plate was sealed and incubated in a dark at room temperature for 2 hours. The plate was read in an Analyst plate reader (LJL Biosystems/Molecular Devices Corporation) or other similar plate reader capable of recording fluorescence polarization (excitation wavelength 530 nm, emission wavelength 590 nm and a dichroic mirror at 561 nm).

IC50 [nM]	SMILES
2.3	COCC(=O)O[C@]1(C(=O)SCC#N)CC[C@H]2[C@@H]3C=C(C)C4=Cc5c(cnn5-c5ccc(F)nc5)C[C@]4(C)[C@H]3[C@@H](O)C[C@@]21C [Example 1, (1R,3aS,3bS,10aR,10bS,11S,12aS)-1-{[(Cyanomethyl)sulfanyl]carbonyl}-7-(6-fluoropyridin-3-yl)-11-hydroxy-5,10a,12a-trimethyl-1,2,3,3a,3b,7,10,10a,10b,-11,12,12a-dodecahydrocyclopenta[5,6]naphtho[1,2-f]indazol-1-yl methoxyacetate]
2.1	CCC(=O)O[C@]1(C(=O)SCC#N)CC[C@H]2[C@@H]3C=C(C)C4=Cc5c(cnn5-c5ccc(F)nc5)C[C@]4(C)[C@H]3[C@@H](O)C[C@@]21C [Example 2, (1R,3aS,3bS,10aR,10bS,11S,12aS)-1-{[(Cyanomethyl)sulfanyl]carbonyl}-7-(6-fluoropyridin-3-yl)-11-hydroxy-5,10a,12a-trimethyl-1,2,3,3a,3b,7,10,10a,10b,-11,12,12a-dodecahydrocyclopenta[5,6]naphtho[1,2-f]indazol-1-yl propanoate]
1.4	CCC(=O)O[C@]1(C(=O)SCF)CC[C@H]2[C@@H]3C=CC4=Cc5c(cnn5-c5ccc(F)nc5)C[C@]4(C)[C@H]3[C@@H](O)C[C@@]21C [Example 3, (1R,3aS,3bS,10aR,10bS,11S,12aS)-1-{[(Fluoromethyl)sulfanyl]carbonyl}-7-(6-fluoropyridin-3-yl)-11-hydroxy-10a,12a-dimethyl-1,2,3,3a,3b,7,10,10a,10b,11,12,12a-dodecahydrocyclopenta[5,6]naphtho[1,2-f]indazol-1-ylpropanoate]
0.8	COCC(=O)O[C@]1(C(=O)SCF)CC[C@H]2[C@@H]3C=CC4=Cc5c(cnn5-c5ccc(F)nc5)C[C@]4(C)[C@H]3[C@@H](O)C[C@@]21C [Example 4, (1R,3aS,3bS,10aR,10bS,11S,12aS)-1-{[(Fluoromethyl)sulfanyl]carbonyl}-7-(6-fluoropyridin-3-yl)-11-hydroxy-10a,12a-dimethyl-1,2,3,3a,3b,7,10,10a,10b,11,12,12a-dodecahydrocyclopenta[5,6]naphtho[1,2-f]indazol-1-yl methoxyacetate]
1.5	C[C@]12Cc3cnn(-c4ccc(F)nc4)c3C=C1C=C[C@@H]1[C@@H]2[C@@H](O)C[C@@]2(C)[C@H]1CC[C@]2(OC(=O)c1cocn1)C(=O)SCF [Example 5, (1R,3aS,3bS,10aR,10bS,11S,12aS)-1-{[(fluoromethyl)sulfanyl]carbonyl}-7-(6-fluoropyridin-3-yl)-11-hydroxy-10a,12a-dimethyl-1,2,3,3a,3b,7,10,10a,10b,11,12,12a-dodecahydrocyclopenta[5,6]naphtho [1,2-f]indazol-1-yl 1,3-oxazole-4-carboxylate]
1.8	C[C@]12Cc3cnn(-c4ccc(F)nc4)c3C=C1C=C[C@@H]1[C@@H]2[C@@H](O)C[C@@]2(C)[C@H]1CC[C@]2(OC(=O)c1cocn1)C(=O)SCC#N [Example 6, (1R,3aS,3bS,10aR,10bS,11S,12aS)-1-{[cyanomethyl)sulfanyl]carbonyl}-7-(6-fluoropyridin-3-yl)-11-hydroxy-10a,12a-dimethyl-1,2,3,3a,3b,7,10,10a,10b,11,12,12a-dodecahydrocyclopenta[5,6]naphtho [1,2-f]indazol-1-yl 1,3-oxazole-4-carboxylate]
0.87	COCC(=O)O[C@]1(C(=O)SCC#N)CC[C@H]2[C@@H]3C=CC4=Cc5c(cnn5-c5ccc(F)nc5)C[C@]4(C)[C@H]3[C@@H](O)C[C@@]21C [Example 7, (1R,3aS,3bS,10aR,10bS,11S,12aS)-1-{[(cyanomethyl)sulfanyl]carbonyl}-7-(6-fluoropyridin-3-yl)-11-hydroxy-10a,12a-dimethyl-1,2,3,3a,3b,7,10,10a,10b,11,12,12a-dodecahydrocyclopenta[5,6]naphtho [1,2-f]indazol-1-yl methoxyacetate]
1.4	C[C@]12Cc3cnn(-c4ccc(F)nc4)c3C=C1C=C[C@@H]1[C@@H]2[C@@H](O)C[C@@]2(C)[C@H]1CC[C@]2(OC(=O)C1CC1)C(=O)SCF [Example 8, (1R,3aS,3bS,10aR,10bS,11S,12aS)-1-{[(fluoromethyl)sulfanyl]carbonyl}-7-(6-fluoropyridin-3-yl)-11-hydroxy-10a,12a-dimethyl-1,2,3,3a,3b,7,10,10a,10b,11,12,12a-dodecahydrocyclopenta[5,6]naphtho [1,2-f]indazol-1-yl cyclopropanecarboxylate]
1	C[C@]12Cc3cnn(-c4ccc(F)nc4)c3C=C1C=C[C@@H]1[C@@H]2[C@@H](O)C[C@@]2(C)[C@H]1CC[C@]2(OC(=O)C1CC1)C(=O)SCC#N [Example 9, (1R,3aS,3bS,10aR,10bS,11S,12aS)-1-{[(cyanomethyl)sulfanyl]carbonyl}-7-(6-fluoropyridin-3-yl)-11-hydroxy-10a,12a-dimethyl-1,2,3,3a,3b,7,- 10,10a,10b,11,12,12a-dodecahydro-cyclopenta[5,6]naphtho[1,2-f]indazol-1-yl cyclopropanecarboxylate]
0.83	CCC(=O)O[C@]1(C(=O)SCC#N)CC[C@H]2[C@@H]3C=CC4=Cc5c(cnn5-c5ccc(F)nc5)C[C@]4(C)[C@H]3[C@@H](O)C[C@@]21C [Example 10, (1R,3aS,3bS,10aR,10bS,11S,12aS)-1-{[(cyanomethyl)sulfanyl]carbonyl}-7-(6-fluoropyridin-3-yl)-11-hydroxy-10a,12a-dimethyl-1,2,3,3a,3b,7,10,10a,10b,11,12,12a-dodecahydrocyclopenta[5,6]naphtho [1,2-f]indazol-1-yl propanoate]
3.6	CCC(=O)O[C@]1(C(=O)SCF)CC[C@H]2[C@@H]3C=C(C)C4=Cc5c(cnn5-c5ccc(F)nc5)C[C@]4(C)[C@H]3[C@@H](O)C[C@@]21C [Example 11, (1R,3aS,3bS,10aR,10bS,11S,12aS)-1-{[(fluoromethyl)sulfanyl]carbonyl}-7-(6-fluoropyridin-3-yl)-11-hydroxy-5,10a,12a-trimethyl-1,2,3,3a,3b,7,10,10a,10b,11,12,12a-dodecahydrocyclopenta[5,6]naphtho [1,2-f]indazol-1-yl propanoate]
1.6	CC1=C[C@@H]2[C@H]([C@@H](O)C[C@@]3(C)[C@H]2CC[C@]3(OC(=O)C2CC2)C(=O)SCF)[C@@]2(C)Cc3cnn(-c4ccc(F)nc4)c3C=C12 [Example 12, (1R,3aS,3bS,10aR,10bS,11S,12aS)-1-{[(fluoromethyl)sulfanyl]carbonyl}-7-(6-fluoropyridin-3-yl)-11-hydroxy-5,10a,12a-trimethyl-1,2,3,3a,3b,7,- 10,10a,10b,11,12,12a-dodecahydro-cyclopenta[5,6]naphtho[1,2-f]indazol-1-yl cyclopropanecarboxylate]
1.5	CC1=C[C@@H]2[C@H]([C@@H](O)C[C@@]3(C)[C@H]2CC[C@]3(OC(=O)C2CC2)C(=O)SCC#N)[C@@]2(C)Cc3cnn(-c4ccc(F)nc4)c3C=C12 [Example 13, (1R,3aS,3bS,10aR,10bS,11S,12aS)-1-{[cyanomethyl)sulfanyl]carbonyl}-7-(6-fluoropyridin-3-yl)-11-hydroxy-5,10a,12a-trimethyl-1,2,3,3a,3b,7,10,10a,10b,11,12,12a-dodecahydrocyclopenta[5,6]naphtho [1,2-f]indazol-1-yl cyclopropanecarboxylate]
